# Data published in ChEMBL document CHEMBL1201862, “PubChem BioAssay data set” (2004).
# Counter-ions that a name gives are not always drawn. Activity calls are given as the source filed them.
# Columns and labels:
# SN12K1 = test: cells; format: functional; conditions: Homo sapiens
# P388 = test: cells; format: functional; conditions: Mus musculus
# P388/ADR = test: cells; format: functional; conditions: Mus musculus
# Vero = test: cells; format: functional; conditions: Chlorocebus sabaeus
# [1] = biological target: Dual specificity tyrosine-phosphorylation-regulated kinase 1A (Rattus norvegicus, UniProt Q63470); format: biochemical, Homo sapiens
# [2] = A cytotoxicity screen of small molecule inhibitors of the PhoP region in Salmonella typhi identified in the primary screen. [Related pubchem assays: 1850, 1864, 1985 ]; format: functional
# Cytochrome P450 3A4 = Cytochrome P450 3A4 (Homo sapiens, UniProt P08684);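 further: CYP3A4 tested as one member of a cytochrome P450 panel screen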
# Sequence of Cytochrome P450 3A4 (P08684 whole entry): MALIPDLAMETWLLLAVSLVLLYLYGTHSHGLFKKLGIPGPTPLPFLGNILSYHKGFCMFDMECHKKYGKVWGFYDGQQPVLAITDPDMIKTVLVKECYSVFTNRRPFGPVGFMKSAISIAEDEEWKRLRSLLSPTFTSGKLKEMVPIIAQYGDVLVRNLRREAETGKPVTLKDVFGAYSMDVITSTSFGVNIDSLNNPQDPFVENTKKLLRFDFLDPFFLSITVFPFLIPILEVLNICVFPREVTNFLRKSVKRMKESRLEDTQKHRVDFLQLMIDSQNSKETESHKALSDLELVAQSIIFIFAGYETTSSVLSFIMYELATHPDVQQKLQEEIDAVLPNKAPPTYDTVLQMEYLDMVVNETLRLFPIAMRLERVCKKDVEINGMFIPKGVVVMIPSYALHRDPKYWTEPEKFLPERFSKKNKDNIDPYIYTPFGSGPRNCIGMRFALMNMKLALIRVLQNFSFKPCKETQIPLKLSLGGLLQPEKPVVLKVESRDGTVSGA
# [3] = biological target: T1, Heat shock factor protein 1 (Mus musculus, UniProt P38532); test: inhibition of MG132-induced HSE-luciferase signal, confirmation, cell-based, NIH3T3, luminescence, dose retest (AID 2382); format: functional;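 further: NIH3T3 fibroblasts with HSF1-driven luciferase reporter stressed by proteasome inhibitor MG132; luminescence from HSF1-driven luciferase expression after 8 hours of MG132 stress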
# T1 sequence (P38532 whole entry): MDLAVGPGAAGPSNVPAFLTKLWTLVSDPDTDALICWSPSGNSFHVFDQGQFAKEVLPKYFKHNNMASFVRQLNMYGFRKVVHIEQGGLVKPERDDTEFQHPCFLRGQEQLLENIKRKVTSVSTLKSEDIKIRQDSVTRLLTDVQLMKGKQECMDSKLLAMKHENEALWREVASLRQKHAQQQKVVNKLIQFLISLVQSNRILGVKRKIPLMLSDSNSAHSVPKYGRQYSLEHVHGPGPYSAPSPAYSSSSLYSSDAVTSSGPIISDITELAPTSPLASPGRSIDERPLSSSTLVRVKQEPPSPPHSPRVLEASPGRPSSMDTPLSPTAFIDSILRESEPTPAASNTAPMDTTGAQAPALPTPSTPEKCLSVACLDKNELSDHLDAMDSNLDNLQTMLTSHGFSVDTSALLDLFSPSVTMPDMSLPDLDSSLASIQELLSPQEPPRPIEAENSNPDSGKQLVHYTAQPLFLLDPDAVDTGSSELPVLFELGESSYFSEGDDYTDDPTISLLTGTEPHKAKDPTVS
# Cytochrome P450 2D6 = Cytochrome P450 2D6 (Homo sapiens, UniProt P10635);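 further: CYP2D6 member of a cytochrome P450 panel assay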
# Sequence of Cytochrome P450 2D6 (P10635 whole entry): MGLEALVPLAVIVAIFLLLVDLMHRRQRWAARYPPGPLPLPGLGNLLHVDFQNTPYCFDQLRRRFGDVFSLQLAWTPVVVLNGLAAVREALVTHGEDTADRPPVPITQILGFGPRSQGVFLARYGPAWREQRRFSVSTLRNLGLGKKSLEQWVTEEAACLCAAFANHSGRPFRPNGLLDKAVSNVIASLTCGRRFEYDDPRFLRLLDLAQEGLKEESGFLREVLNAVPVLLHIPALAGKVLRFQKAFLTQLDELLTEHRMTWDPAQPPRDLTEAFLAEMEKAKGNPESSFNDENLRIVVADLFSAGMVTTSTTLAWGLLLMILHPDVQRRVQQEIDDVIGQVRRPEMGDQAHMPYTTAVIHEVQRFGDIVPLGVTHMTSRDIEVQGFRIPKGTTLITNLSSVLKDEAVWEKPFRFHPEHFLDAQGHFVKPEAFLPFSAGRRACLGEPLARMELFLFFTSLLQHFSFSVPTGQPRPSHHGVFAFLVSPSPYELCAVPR
# [4] = biological target: T2, Rac GTPase-activating protein 1 (Homo sapiens, UniProt Q9H0H5); test: MgcRacGAP GTPase-activating activity inhibitors, confirmation, biochemical, ADP Hunter fluorescence, primary and confirmatory (AID 624330); format: functional
# T2 sequence (Q9H0H5 whole entry): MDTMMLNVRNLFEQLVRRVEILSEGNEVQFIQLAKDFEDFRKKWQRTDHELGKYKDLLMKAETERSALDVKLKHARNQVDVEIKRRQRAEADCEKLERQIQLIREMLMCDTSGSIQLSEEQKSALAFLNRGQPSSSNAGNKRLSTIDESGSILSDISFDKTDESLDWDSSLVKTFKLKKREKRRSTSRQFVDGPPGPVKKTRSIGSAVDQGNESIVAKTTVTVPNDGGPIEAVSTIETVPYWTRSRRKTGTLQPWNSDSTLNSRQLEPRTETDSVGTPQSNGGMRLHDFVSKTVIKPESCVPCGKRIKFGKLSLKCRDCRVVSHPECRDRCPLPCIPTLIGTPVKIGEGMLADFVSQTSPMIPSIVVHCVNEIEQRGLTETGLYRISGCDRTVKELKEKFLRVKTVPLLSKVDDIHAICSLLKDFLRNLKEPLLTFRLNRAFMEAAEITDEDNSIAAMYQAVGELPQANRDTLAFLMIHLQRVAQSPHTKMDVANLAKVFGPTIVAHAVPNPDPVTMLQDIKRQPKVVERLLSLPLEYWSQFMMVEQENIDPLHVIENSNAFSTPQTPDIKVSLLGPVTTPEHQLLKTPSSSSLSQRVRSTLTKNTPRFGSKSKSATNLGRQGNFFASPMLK
# [5] = biological target: T1, Heat shock factor protein 1; test: HSF1 potentiators in luciferase reporter cells, confirmation, cell-based, NIH3T3, luminescence, dose retest (AID 435004); format: functional;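 further: stress induced by proteasome inhibitor MG132 added 30 min after compound; luciferase reporter driven by HSF1 response element in NIH3T3 cells; actives raise luminescence as potentiators of the MG132 stress response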
# [6] = tested on: Streptococcus sp. 'group A'; test: growth inhibition of control SK(-) GAS strain, dose response, counter-screen for streptokinase expression inhibitor project, luminescence, kanamycin, BacTiterGlo, confirmation (AID 1900); format: functional, organism-based
# Streptococcus = test: Group A Streptococcus viability loss, dose response, counter-screen for streptokinase expression inhibitor project, luminescence, BacTiterGlo (AID 1915); format: functional, organism-based;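 further: potency for reduction of bacterial viability or growth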
# BJ [7] = test: cytotoxicity toward BJ-TERT-LT-ST fibroblasts, dose response, cell-based, RAS-independent, luminescence (AID 1935); format: functional; conditions: Homo sapiens;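 further: BJ fibroblasts immortalized with TERT plus LT and ST oncogenes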
# BJ [8] = test: cells; format: functional, cell-based; conditions: Homo sapiens
# [9] = cytotoxicity in HEK-293T cells, dose response, cytotoxicity control for TCR NF-kB inhibitor project, luminescence, T-cell screen hits (AID 489026); format: functional, cell-based;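 further: cells exposed to compound about 14 hours before the viability readout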
# [10] = cytotoxicity toward DRD oncogenic fibroblasts, dose response, cell-based, non-viral oncogenic, luminescence (AID 1934); format: functional; conditions: Homo sapiens
# BJ [11] = test: cytotoxicity toward BJ-TERT fibroblasts, dose response, cell-based, RAS-independent, luminescence (AID 1933); format: functional; conditions: Homo sapiens
# [12] = THP-1 cell cytotoxicity, dose response, cytotoxicity control for non-replicating M. tuberculosis project (AID 489025); format: functional
# [13] = microbe, parasite or virus in culture; format: functional; conditions: Mycobacterium tuberculosis
# cells [14] = format: functional
# cells [15] = format: functional, cell-based
# [16] = C. albicans growth with fluconazole, confirmation, fluorescence, retest (AID 2467); format: functional, cell-based
# Nonstructural protein 1 = Nonstructural protein 1 (Influenza A virus, UniProt Q194T2); format: functional, Influenza A virus (A/California/07/2009(H1N1))
# Sequence of Nonstructural protein 1 (Q194T2 whole entry): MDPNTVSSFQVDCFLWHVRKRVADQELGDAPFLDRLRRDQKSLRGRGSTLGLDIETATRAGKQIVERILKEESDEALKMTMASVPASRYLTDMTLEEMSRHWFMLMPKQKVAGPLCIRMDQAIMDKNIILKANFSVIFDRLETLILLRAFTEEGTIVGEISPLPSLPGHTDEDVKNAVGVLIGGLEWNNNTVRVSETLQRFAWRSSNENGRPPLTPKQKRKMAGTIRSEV
# [17] = NIH-3T3 fibroblast cytotoxicity, dose response, cytotoxicity control, cell-based, fluorescence, Alamar Blue, secondary assay (AID 2327); format: functional;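 further: NIH-3T3 mouse fibroblasts cultured with fluconazole at 8 µg/mL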
# INS1 = test: beta cell apoptosis inhibitors, cytokine rescue, dose response, luminescence, retest (AID 449756); format: functional, cell-based; conditions: Rattus norvegicus;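 further: cell death triggered by IL-1 beta plus TNF-alpha plus IFN-gamma mixture; protective hits raise ATP signal compared with cytokine alone wells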
# cells [18] = format: functional, cell-based; remark: listed apart in the source
# Streptokinase A = biological target: T3, Streptokinase A (Streptococcus pyogenes serotype M1, UniProt P10520); test: S. pyogenes streptokinase expression inhibitors, potency, dose response, plasminogen activation absorbance, OD405 (AID 1914); format: functional, Streptococcus pyogenes M1 GAS;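 further: secreted streptokinase activity via plasminogen activation per viability signal from cell pellet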
# T3 sequence (P10520 whole entry): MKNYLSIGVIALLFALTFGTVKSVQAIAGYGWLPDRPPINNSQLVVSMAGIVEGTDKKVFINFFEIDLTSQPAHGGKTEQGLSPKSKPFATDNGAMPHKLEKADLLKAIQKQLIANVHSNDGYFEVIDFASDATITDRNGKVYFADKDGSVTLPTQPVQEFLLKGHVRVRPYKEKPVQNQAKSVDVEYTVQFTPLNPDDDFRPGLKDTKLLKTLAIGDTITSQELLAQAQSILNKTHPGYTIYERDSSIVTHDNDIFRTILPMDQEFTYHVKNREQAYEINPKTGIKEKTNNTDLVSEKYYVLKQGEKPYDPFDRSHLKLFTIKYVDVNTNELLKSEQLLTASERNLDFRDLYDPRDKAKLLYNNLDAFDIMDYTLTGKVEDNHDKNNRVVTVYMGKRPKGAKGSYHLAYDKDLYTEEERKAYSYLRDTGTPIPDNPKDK
# [19] = Luminescence Cell-Based Dose Response HTS to Identify Inhibitors of 5'UTR Stem-Loop Driven Prion Protein mRNA Translation in H4 Neuroglioblastoma Cells. [Related pubchem assays: 1827 (Project Summary), 1813 (Primary HTS)]; format: functional
# [20] = inhibitors of SNCA 5'UTR-driven reporter translation, confirmation, H4 neuroglioma cells, luminescence (AID 1988); format: functional, cell-based
# [21] = inhibitors of firefly luciferase expression or activity, dose response, H4 neuroglioma cells, luminescence (AID 1990); format: functional, cell-based
# [22] = biological target: T4, Calpain-2 catalytic subunit (Sus scrofa, UniProt P43367); test: pig calpain II inhibitor potency, dose response, biochemical, fluorogenic peptide substrate (AID 1420); format: functional
# T4 sequence (P43367 whole entry): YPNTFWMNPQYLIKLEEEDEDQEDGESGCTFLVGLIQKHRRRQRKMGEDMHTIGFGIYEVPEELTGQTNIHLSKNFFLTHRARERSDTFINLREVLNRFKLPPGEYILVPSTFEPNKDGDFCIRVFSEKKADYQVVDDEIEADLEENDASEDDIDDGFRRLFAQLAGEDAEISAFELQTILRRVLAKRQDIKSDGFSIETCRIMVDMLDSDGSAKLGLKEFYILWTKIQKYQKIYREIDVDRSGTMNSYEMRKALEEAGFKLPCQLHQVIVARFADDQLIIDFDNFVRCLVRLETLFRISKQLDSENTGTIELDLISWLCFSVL
smiles,measurement,setting,value
CC1(CO)C(O)CCC2(C)C1C(O)CC1CC3CC12CCC3(O)CO (configuration not stated),GI50,SN12K1,209 µM (inactive)
same,GI50,P388,11.2 µM (inactive)
same,GI50,P388/ADR,187 µM (inactive)
CCOCC(=O)N(C)c1cccc2c3c(n(C)c12)CCCCC3,GI50,SN12K1,> 100 µM (inactive)
same,GI50,P388,> 100 µM (inactive)
same,GI50,P388/ADR,> 100 µM (inactive)
COc1ccc(OC)c(/C=C2\SC(=S)N(Cc3cccnc3)C2=O)c1,CC50,Vero,14.8 µM (active)
Fc1ccc(C2Nc3cccc4cccc(c34)N2)cc1,AC50,[1],16.4 µM (active)
CS(=O)(=O)c1cnc2c(-c3ccc(F)cc3)cnn2c1N,EC50,[2],> 50 µM (active)
same,AC50,Cytochrome P450 3A4,28.2 µM (inconclusive)
c1ccc(-c2nc3ccccc3[nH]2)cc1,EC50,[3],> 195 µM (not active)
same,EC50,[2],> 50 µM (active)
O=C1SC(c2ccccc2)=C/C1=C\N1CCCCC1,AC50,Cytochrome P450 2D6,25.1 µM (inconclusive)
same,IC50,[4],45.9 µM (active)
same,EC50,[2],> 50 µM (active)
same,AC50,[1],2.83 µM (active)
same,AC50,Cytochrome P450 3A4,25.1 µM (inconclusive)
Cc1noc(NS(=O)(=O)c2ccc(NC(=O)c3oc4ccc(F)cc4c3C)cc2)c1C,EC50,[5],> 260 µM (inactive)
same,AC50,[1],9.87 µM (active)
O=C1C=C2SC3C[C@@]24CC1(O)[N+]1=c2c4c(c(O)c4c2=C(C=N4)CC1)N3,GI50,SN12K1,1.29 µM (inactive)
same,GI50,P388,0.869 µM (active)
same,GI50,P388/ADR,1.3 µM (inactive)
C=C(C)Cn1c(-c2ccc(OC)cc2)nc2ccccc21,EC50,[2],> 50 µM (active)
O=C1C2C3C=CC(CC3)C2C(=O)N1/N=C/c1ccc(O)cc1 (configuration not stated),EC50,[2],> 50 µM (active)
COc1cc(C2C(=O)c3ccccc3C2=O)ccc1O,IC50,[4],16.1 µM (active)
same,AC50,[1],3.44 µM (active)
N=C(N)/N=N/c1c(O)[nH]c2ccc(Br)cc12,AC50,[1],5.14 µM (active)
COC1CC(C)C(OC)c2cc(O)cc(c2O)NC(=O)/C(C)=C/C=C\C(C)C(OC(N)=O)/C(C)=C\C(C)C1OC (configuration not stated),GI50,P388,0.0693 µM (active)
same,GI50,P388/ADR,1.55 µM (inactive)
NC1CCN(c2nc3c(cc2F)c(=O)c(C(=O)O)cn3-c2ccc(F)cc2F)C1 (configuration not stated) [TOSUFLOXACIN TOSYLATE],EC50,[6],0.276 µM (active)
same,EC50,[2],> 50 µM (active)
same,EC50,Streptococcus,0.999 µM (active)
Cc1ccc(C(=O)Nc2cc3ccccc3oc2=O)cc1,EC50,[3],0.21 µM (active)
same,EC50,BJ [7],24 µM (active)
same,EC50,BJ [8],9.35 µM (active)
same,IC50,[9],> 80 µM (inactive)
same,EC50,[10],6.97 µM (active)
same,EC50,BJ [11],18.4 µM (active)
Cc1ccc(S(=O)(=O)/N=C(\CCl)N2CCOCC2)cc1,CC50,[12],30.1 µM (active)
same,CC50,[13],> 40 µM (active)
same,IC50,cells [14],10.8 µM (active)
Cc1nnc(N/N=C/c2ccccn2)nc1O,EC50,cells [15],> 350 µM (not active)
same,EC50,[16],2.72 µM (active)
same,EC50,BJ [7],5.42 µM (active)
same,EC50,BJ [8],4.02 µM (active)
same,IC50,Nonstructural protein 1,3.92 µM (active)
same,EC50,[17],4.26 µM (active)
same,IC50,[9],> 80 µM (inactive)
same,EC50,[10],5.38 µM (inconclusive)
same,EC50,BJ [11],1.69 µM (active)
same,AC50,INS1,1.56 µM (active)
same,EC50,cells [18],7.24 µM (active)
COCCCn1c(N)c(C(=O)Nc2ccccc2)c2nc3ccccc3nc21,CC50,Vero,> 25 µM (active)
same,EC50,[6],16.9 µM (active)
same,EC50,Streptococcus,32.8 µM (active)
same,EC50,Streptokinase A,> 150 µM (not active)
CCOC(=O)C1=C(c2ccccc2)NC(=O)NC1c1ccc(O)c(Cl)c1 (configuration not stated),EC50,cells [15],> 350 µM (not active)
same,CC50,Vero,22.5 µM (active)
same,EC50,cells [18],> 350 µM (not active)
CCO[C@@H]1OC(C(=O)NCc2nc3ccccc3[nH]2)=C[C@H](C(C)(C)C)[C@H]1CCCO,EC50,[19],10.5 µM (active)
same,IC50,[9],> 80 µM (inactive)
same,EC50,[20],0.297 µM (inconclusive)
same,EC50,[21],> 60 µM (not active)
Cc1noc(C)c1COc1cccc(C(=O)OCC(=O)N2CC(=O)Nc3ccccc32)c1,IC50,[9],> 80 µM (inactive)
COc1ccccc1N1CCN(C(=O)c2ccc(-c3ccc(Cl)cc3)o2)CC1,IC50,[9],72.7 µM (inactive)
O=C1CC(c2cccc(Br)c2)c2cc3c(cc2N1)CCC3 (configuration not stated),IC50,[9],> 80 µM (inactive)
same,IC50,[22],> 50 µM (not active)
